Read-outs that look alike come from different tables or passages of the source.
Columns and labels:
[1] = system: patients with Fabry disease with amenable mutations; assay type: in vivo, human
Method: These analyses included data from 4 Phase 2 and 4 Phase 3 clinical trials with the data cutoff of Feb.
FAB-CL-202 (NCT00283959), FAB-CL-203 (NCT00283933), and FAB-CL-204 (NCT00304512) were phase 2, open-label, noncomparative studies that evaluated the safety, tolerability, pharmacokinetics (PK), and pharmacodynamics (PD) of migalastat (dose range: 50-250 mg) in patients with Fabry disease.
FAB-CL-205 (NCT0052607) was a phase 2, long-term, open-label extension (OLE) study for patients completing phase 2 clinical trials, including FAB-CL-202, FAB-CL-203, and FAB-CL-204. The study included a period with migalastat 150 mg every other day (QOD), then a dose-escalation period, followed by 150 mg QOD.
FACETS (AT1001-011, NCT00925301) was a phase 3, placebo-controlled study designed to evaluate the efficacy, safety, and PD of 6 months of migalastat 150 mg QOD versus placebo, followed by an 18-month open label extension (OLE) of migalastat in ERT-naive patients with Fabry disease and migalastat-amenable GLA variants.
AT1001-041 (NCT01458119) was a long-term OLE study evaluating the long-term safety and efficacy of migalastat in patients completing FAB-CL-205, AT1001-011, or AT1001-012
AT1001-042 (NCT02194985) is an ongoing, long-term OLE study evaluating the long-term safety and efficacy of migalastat in patients who participated in AT1001-012 or AT1001-041.
The analysis evaluates CBV events reported as treatment-emergent adverse events (TEAEs) during migalastat 150 mg QOD treatment in patients with amenable mutations in phase 2 and phase 3 clinical trials.
CBV events were identified by searching medical history and TEAE listings with stroke-related terms, including brain stem ischemia, cerebral infarction, cerebral hemorrhage, cerebral ischemia, cerebrovascular accident, embolic stroke, and TIA.
Only amenable patients who received at least 1 dose of migalastat 150 mg QOD were included in this analysis.

[2] = Population PK (popPK) model of migalastat in adults (NONMEM, bootstrap); design: species or system human; conditions: Bootstrap
Method: A population pharmacokinetics (popPK) model previously developed from healthy adult volunteers and adult patients with Fabry disease after oral migalastat administration. After pooling plasma concentration-time data from Phase I, II, and III studies of AT1001 administered orally in adults using a range of doses from 25 mg to 675 mg and regimens under fasting conditions. […] In contrast, other covariates such as sex, age, drug formulation (solution or suspension vs 25 mg capsule vs 150 mg capsule) were not statistically/clinically significant. Since renal function gradually increases from birth and reaches adult levels by the second year of life (Rubin 1949), there are no expected age-dependent changes in eGFR in the pediatric population 2 years and older than adults. Additionally, pediatric patients with Fabry disease usually have a normal renal function or may experience renal hyperfiltration (Hopkin 2008); therefore, weight-based dosing regimens, assuming that pediatrics have a normal renal function, were planned for the simulations in pediatric Fabry patients. NONMEM program was used to develop the population PK model of migalastat in adults using first-order conditional estimation with interaction (FOCE-I). Simulations were conducted using NONMEM to obtain plasma concentration-time; all graphical analyses were performed using R; noncompartmental analysis and pharmacokinetic parameters summaries were conducted using Phoenix WinNonlin. Bootstrapping and visual predictive checks (VPC)s were conducted using Perl-speaks-NONMEM (PsN) R packages of popED and mrgsolve were used in the optimal sampling strategy. […] The overall purpose of the model development was to come up with a model for pediatric extrapolation. […] Moreover, pediatric CLT/F values extrapolated from the non-renal model were higher than the overall CLT/F approach, resulting in higher pediatric doses for achieving equivalent exposures with adults which was a less conservative approach. Therefore, the overall CLT/F scaling approach is more conservative and was chosen for the final model, which is shown in Table 6. The estimated parameters from bootstrap (see Table 6) were nearly identical to those estimated from the original dataset. All parameters were estimated with adequate precision.

[3] = 150 mg QOD, FAB-CL 202, 203, 204, and 205 (n = 17)

OC[C@H]1NC[C@H](O)[C@@H](O)[C@H]1O [migalastat, (2R,3S,4R,5S)-2-(hydroxymethyl) piperdine-3,4,5-triol]
Any CBV event during treatment, unique patients ([1]; 150 mg QOD, ATTRACT (n = 49)): 2 (4%)
Brain stem ischemia during treatment, patients ([1]; 150 mg QOD, ATTRACT (n = 49)): 0
Cerebral hemorrhage during treatment, patients ([1]; 150 mg QOD, ATTRACT (n = 49)): 0
Cerebral infarction during treatment, patients ([1]; 150 mg QOD, ATTRACT (n = 49)): 0
Cerebral ischemia during treatment, patients ([1]; 150 mg QOD, ATTRACT (n = 49)): 0
Cerebrovascular accident during treatment, patients ([1]; 150 mg QOD, ATTRACT (n = 49)): 0
Embolic stroke during treatment, patients ([1]; 150 mg QOD, ATTRACT (n = 49)): 0
Transient ischemic attack during treatment, patients ([1]; 150 mg QOD, ATTRACT (n = 49)): 2 (4%)
Any CBV event during treatment, unique patients [1, 3]: 3 (18%)
Brain stem ischemia during treatment, patients [1, 3]: 0
Cerebral hemorrhage during treatment, patients [1, 3]: 0
Cerebral infarction during treatment, patients [1, 3]: 1 (6%)
Cerebral ischemia during treatment, patients [1, 3]: 1 (6%)
Cerebrovascular accident during treatment, patients [1, 3]: 1 (6%)
Embolic stroke during treatment, patients [1, 3]: 0
Transient ischemic attack during treatment, patients [1, 3]: 1 (6%)
Any CBV event during treatment, unique patients ([1]; 150 mg QOD, FACETS (n = 48)): 3 (6%)
Brain stem ischemia during treatment, patients ([1]; 150 mg QOD, FACETS (n = 48)): 1 (2%)
Cerebral hemorrhage during treatment, patients ([1]; 150 mg QOD, FACETS (n = 48)): 1 (2%)
Cerebral infarction during treatment, patients ([1]; 150 mg QOD, FACETS (n = 48)): 0
Cerebral ischemia during treatment, patients ([1]; 150 mg QOD, FACETS (n = 48)): 0
Cerebrovascular accident during treatment, patients ([1]; 150 mg QOD, FACETS (n = 48)): 0
Embolic stroke during treatment, patients ([1]; 150 mg QOD, FACETS (n = 48)): 0
Transient ischemic attack during treatment, patients ([1]; 150 mg QOD, FACETS (n = 48)): 1 (2%)
Number of CBV events reported during treatment ([1]; 150 mg QOD, N = 114): 11
Brain stem ischemia during treatment, patients ([1]; 150 mg QOD, Total (N = 114)): 1 (1%)
Cerebral hemorrhage during treatment, patients ([1]; 150 mg QOD, Total (N = 114)): 1 (1%)
Cerebral infarction during treatment, patients ([1]; 150 mg QOD, Total (N = 114)): 1 (1%)
Cerebral ischemia during treatment, patients ([1]; 150 mg QOD, Total (N = 114)): 1 (1%)
Cerebrovascular accident during treatment, patients ([1]; 150 mg QOD, Total (N = 114)): 1 (1%)
Embolic stroke during treatment, patients ([1]; 150 mg QOD, Total (N = 114)): 0
Transient ischemic attack during treatment, patients ([1]; 150 mg QOD, Total (N = 114)): 4 (4%)
CBV events categorized as serious adverse events (SAE) ([1]; 150 mg QOD, of 11 CBV events): Seven
CBV events considered related to treatment ([1]; 150 mg QOD, of 11 CBV events): None
CBV events mild or moderate in severity ([1]; 150 mg QOD, of 11 CBV events): 82%
CBV events that led to treatment discontinuation ([1]; 150 mg QOD, of 11 CBV events): Two
Time on migalastat 150 mg QOD at first event onset, mean (SD) ([1]; 8 patients with CBV events): 1.1 (1.1) years
Patients with pre-migalastat CBV event who did not experience new CBV event during treatment ([1]; among the 16 patients with pre-migalastat CBV event): 10 (63%)
Overall incidence of CBV events during migalastat treatment ([1]; average of 4 years of migalastat): low
EGFR-related exponential index on CL/F, Estimate (% RSE) [2]: 0.925 (5.25%);
Fractional Change in V2/F in subjects without Fabry disease (decrease in V2/F), Estimate (% RSE) [2]: −0.305 (12.3%);
Fractional Change in total CL/F in subjects without Fabry disease (decrease in total CL/F), Estimate (% RSE) [2]: −0.151 (23.5%);

Reference: patent US20240293387A1, “Methods of Treating Fabry Disease in Pediatric Patients” (Amicus Therapeutics, Inc., priority 2021, published 2024)
